Source: ChEMBL document CHEMBL2384921, “An altered zinc-binding site confers resistance to a covalent inactivator of New Delhi metallo-beta-lactamase-1 (NDM-1) discovered by high-throughput screening” (Bioorg Med Chem, 2013)
The source made the active and inactive calls. The calls are words filed in the database; no cut-off is given here.

Assays:
[1] = Inhibition of NDM-1 (unknown origin) using nitrocefin as substrate preincubated 10 mins followed by substrate addition measured after 20 mins
[2] = Inhibition of TEM-1 (unknown origin) using nitrocefin as substrate preincubated 10 mins followed by substrate addition measured after 20 mins relative to control
[3] = Inhibition of TEM-1 (unknown origin) using nitrocefin as substrate preincubated 10 mins followed by substrate addition measured after 20 mins
[4] = Time-dependent inhibition of wild type NDM-1 (unknown origin) expressed in Escherichia coli BL21 (DE3) at 100 uM
[5] = Time-dependent inhibition of recombinant NDM-1 C108D mutant (unknown origin) expressed in Escherichia coli BL21 (DE3) at 100 uM

## Nc1ccc2c3c(cccc13)C(=O)NC2=O
[1]
  IC50: 0.7 µM
[2]
  Imax: 131%
[3]
  IC50: 5.2 µM

## CCN(CC)C(=O)N[C@@H]1C[C@@H]2c3cccc4[nH]cc(c34)C[C@H]2N(C)C1
[1]
  IC50: > 30 µM
[3]
  IC50: > 30 µM

## Cn1cc(C2=C(c3ccc(Cl)cc3Cl)C(=O)NC2=O)c2ccccc21 [SB-216763]
[1]
  IC50: 28 µM
[2]
  Imax: 2%
[3]
  IC50: > 30 µM

## 4-CHLOROMERCURIBENZOIC ACID
[1]
  IC50: 2.3 µM
[3]
  IC50: > 30 µM

## 4-[sequence] ACID
[2]
  Imax: 8%
[4]
  inhibition: Active
[5]
  inhibition: inactive

## Cc1c2ccncc2c(C)c2c1[nH]c1ccccc12 [ELLIPTECINE]
[1]
  IC50: > 30 µM
[3]
  IC50: > 30 µM

## CC(=O)[C@]1(O)Cc2c(O)c3c(c(O)c2[C@@H](O[C@H]2C[C@H](N)[C@H](O)[C@H](C)O2)C1)C(=O)c1ccccc1C3=O [IDARUBICIN]
[1]
  IC50: 0.7 µM
[2]
  Imax: 100%
[3]
  IC50: 7.3 µM

## OCCN(CCO)c1nc(N2CCCCC2)c2nc(N(CCO)CCO)nc(N3CCCCC3)c2n1 [DIPYRIDAMOLE]
[1]
  IC50: > 10 µM
[2]
  Imax: 26%
[3]
  IC50: > 30 µM
